Paper PMC7377239, “Cardiovascular Effects of Polychlorinated Biphenyls and Their Major Metabolites” (Environmental Health Perspectives, 2020)
Read-outs that look alike come from different tables or passages of the source.

System: iCell cardiomyocytes (human iPSC-derived cardiomyocytes)
Assay: High-content imaging of cytotoxicity and mitochondrial integrity in iPSC-CMs
Assay type: cell-based
Settings: Homo sapiens, Cardiomyocyte; for viability at 0.01 µM / activity at 0.01 µM / viability at 0.1 µM / activity at 0.1 µM / viability at 1 µM / activity at 1 µM / viability at 10 µM / activity at 10 µM / viability at 100 µM / activity at 100 µM: 0.00 µM = 100.00; for viability at 0.1 µM / activity at 0.1 µM: 0.10 µM
Summary of the method: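 Cardiomyocytes grown on gelatinized 384-well plates received fresh medium on the experiment day and were then exposed to chemicals at 0.01–100μM. Nuclei and mitochondria were labeled with Hoechst 33342 and MitoTracker™ Orange, then fixed, and imaged on an ImageXpress® Micro Confocal system. Four-parameter logistic concentration–response fits in R, with a one-standard-deviation vehicle cutoff, gave point-of-departure values.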

[1] = 1.5 h, 90min, read-out: cm.cam.90min
[2] = 1.5 h, 90min, read-out: cm.mii.90min
[3] = 1.5 h, 90min, read-out: cm.mito.90min
[4] = 1.5 h, 90min, read-out: cm.tc.90min
[5] = 1.5 h, 90min, read-out: cm.cam.90min POD
[6] = 1.5 h, 90min, read-out: cm.mii.90min POD
[7] = 1.5 h, 90min, read-out: cm.mito.90min POD
[8] = 1.5 h, 90min, read-out: cm.tc.90min POD
[9] = 24 h, 24hrs, read-out: cm.cam.24hrs
[10] = 24 h, 24hrs, read-out: cm.mii.24hrs
[11] = 24 h, 24hrs, read-out: cm.mito.24hrs
[12] = 24 h, 24hrs, read-out: cm.tc.24hrs
[13] = 24 h, read-out: cm.cam.24hrs POD
[14] = 24 h, read-out: cm.mii.24hrs POD
[15] = 24 h, read-out: cm.mito.24hrs POD
[16] = 24 h, read-out: cm.tc.24hrs POD

Clc1ccc(-c2cc(Cl)c(Cl)c(Cl)c2)cc1Cl [PCB126]
viability at 0.01 µM [1]: 107%
activity at 0.01 µM [2]: 97.6%
activity at 0.01 µM [3]: 108%
viability at 0.01 µM [4]: 107%
viability at 0.1 µM [1]: 101%
activity at 0.1 µM [2]: 106%
activity at 0.1 µM [3]: 101%
viability at 0.1 µM [4]: 101%
viability at 1 µM [1]: 97.4%
activity at 1 µM [2]: 111%
activity at 1 µM [3]: 97.2%
viability at 1 µM [4]: 97.2%
viability at 10 µM [1]: 97.1%
activity at 10 µM [2]: 103%
activity at 10 µM [3]: 96.8%
viability at 10 µM [4]: 96.8%
viability at 100 µM [1]: 97.2%
activity at 100 µM [2]: 111%
activity at 100 µM [3]: 96.7%
viability at 100 µM [4]: 96.7%
minimal effective concentration [5]: 100 µM
minimal effective concentration [6]: 100 µM
minimal effective concentration [7]: 100 µM
minimal effective concentration [8]: 100 µM
viability at 0.01 µM [9]: 94.2%
activity at 0.01 µM [10]: 109%
activity at 0.01 µM [11]: 94%
viability at 0.01 µM [12]: 93.7%
viability at 0.1 µM [9]: 97.6%
activity at 0.1 µM [10]: 80.7%
activity at 0.1 µM [11]: 96.1%
viability at 0.1 µM [12]: 98%
viability at 1 µM [9]: 101%
activity at 1 µM [10]: 103%
activity at 1 µM [11]: 103%
viability at 1 µM [12]: 101%
viability at 10 µM [9]: 90.4%
activity at 10 µM [10]: 74%
activity at 10 µM [11]: 88.5%
viability at 10 µM [12]: 90.2%
viability at 100 µM [9]: 46.6%
activity at 100 µM [10]: 101%
activity at 100 µM [11]: 35.6%
viability at 100 µM [12]: 48.4%
minimal effective concentration [13]: 7.03 µM
minimal effective concentration [14]: 100 µM
minimal effective concentration [15]: 7.54 µM
minimal effective concentration [16]: 6.48 µM

Clc1cc(Cl)c(-c2cc(Cl)c(Cl)cc2Cl)cc1Cl [PCB153]
viability at 0.01 µM [1]: 98.3%
activity at 0.01 µM [2]: 112%
activity at 0.01 µM [3]: 98.2%
viability at 0.01 µM [4]: 98.1%
viability at 0.1 µM [1]: 96.8%
activity at 0.1 µM [2]: 109%
activity at 0.1 µM [3]: 96.6%
viability at 0.1 µM [4]: 96.6%
viability at 1 µM [1]: 102%
activity at 1 µM [2]: 112%
activity at 1 µM [3]: 102%
viability at 1 µM [4]: 102%
viability at 10 µM [1]: 99.4%
activity at 10 µM [2]: 102%
activity at 10 µM [3]: 99.5%
viability at 10 µM [4]: 99.5%
viability at 100 µM [1]: 1.35%
activity at 100 µM [2]: 91%
activity at 100 µM [3]: 1.22%
viability at 100 µM [4]: 1.5%
minimal effective concentration [5]: 20.6 µM
minimal effective concentration [6]: 100 µM
minimal effective concentration [7]: 19.8 µM
minimal effective concentration [8]: 23.2 µM
viability at 0.01 µM [9]: 94.6%
activity at 0.01 µM [10]: 88.6%
activity at 0.01 µM [11]: 94.7%
viability at 0.01 µM [12]: 95.8%
viability at 0.1 µM [9]: 98.2%
activity at 0.1 µM [10]: 109%
activity at 0.1 µM [11]: 99.3%
viability at 0.1 µM [12]: 98.3%
viability at 1 µM [9]: 99.7%
activity at 1 µM [10]: 80.6%
activity at 1 µM [11]: 100%
viability at 1 µM [12]: 99.9%
viability at 10 µM [9]: 96.8%
activity at 10 µM [10]: 99.6%
activity at 10 µM [11]: 95.2%
viability at 10 µM [12]: 96.5%
viability at 100 µM [9]: 1.91%
activity at 100 µM [10]: 23.6%
activity at 100 µM [11]: 0.34%
viability at 100 µM [12]: 1.92%
minimal effective concentration [13]: 11.6 µM
minimal effective concentration [14]: 39.9 µM
minimal effective concentration [15]: 10.5 µM
minimal effective concentration [16]: 11.1 µM

Clc1ccc(-c2ccccc2)cc1 [PCB 3, 4-chlorobiphenyl]
minimal effective concentration (1.5 h, cardiomyocytes (cm), cam, 90 min, read-out: POD cm.cam.90min): 24.9 µM
minimal effective concentration (1.5 h, cardiomyocytes (cm), mii, 90 min, read-out: POD cm.mii.90min): 6.86 µM
minimal effective concentration (1.5 h, cardiomyocytes (cm), mito, 90 min, read-out: POD cm.mito.90min): 21.2 µM
minimal effective concentration (1.5 h, cardiomyocytes (cm), tc, 90 min, read-out: POD cm.tc.90min): 20 µM
minimal effective concentration (24 h, cardiomyocytes (cm), cam, 24 hrs, read-out: POD cm.cam.24hrs): 7.4 µM
minimal effective concentration (24 h, cardiomyocytes (cm), mii, 24 hrs, read-out: POD cm.mii.24hrs): 10.9 µM
minimal effective concentration (24 h, cardiomyocytes (cm), mito, 24 hrs, read-out: POD cm.mito.24hrs): 6.67 µM
minimal effective concentration (24 h, cardiomyocytes (cm), tc, 24 hrs, read-out: POD cm.tc.24hrs): 6.97 µM
